Biological target: T1, CRTh2 receptor (Homo sapiens, UniProt Q9Y5Y4)
T1 construct: expressed in transfected cells; host or cells: CHO.K1 cells (membranes)
T1 sequence (Q9Y5Y4 1-395): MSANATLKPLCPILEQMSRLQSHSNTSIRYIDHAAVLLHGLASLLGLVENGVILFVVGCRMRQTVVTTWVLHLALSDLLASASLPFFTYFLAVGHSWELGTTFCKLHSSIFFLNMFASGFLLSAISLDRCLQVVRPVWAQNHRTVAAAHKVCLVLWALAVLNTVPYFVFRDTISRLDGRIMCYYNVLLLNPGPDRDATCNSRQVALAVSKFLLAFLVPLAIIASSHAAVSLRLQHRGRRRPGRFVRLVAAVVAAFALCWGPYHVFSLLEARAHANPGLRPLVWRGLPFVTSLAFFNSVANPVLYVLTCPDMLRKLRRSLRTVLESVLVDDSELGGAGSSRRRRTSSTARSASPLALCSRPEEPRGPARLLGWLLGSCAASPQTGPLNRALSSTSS
Assay: CRTh2 GTPγS antagonism binding assay
Type: biochemical
Conditions: membranes from CHO.K1 cells stably overexpressing the CRTh2 receptor; [35S]-GTPγS 0.1 nM; PGD2 at 50 nM (EC80); compound pre-incubated 1 h; read-out: GTPγ Binding
Method: CRTh2 GTPγS antagonism binding assay
The assay is performed using membranes obtained from CHO.K1 cells stably overexpressing the CRTh2 receptor and [^35S]-GTPγS as radioligand. Assay is performed pre-incubating 4-8 µg of membranes per well with the compound to be tested for 1 h, followed by incubation with PGD2 at 50 nM (EC80), 0.1 nM [^35S]-GTPγS in incubation buffer (20 mM HEPES, 10 mM MgCl2, 100 mM NaCl, 10 µM GDP, 10 µg/ml Saponine and 0.2% BSA) for 2 h at room temperature. The reaction is terminated by filtering in GF/C plates pre-treated with 20 mM HEPES, 10 mM MgCl2, 100 mM NaCl and washing 6 times with wash buffer (20 mM NaH2PO4, 20 mM Na2HPO4). After washing, plates are dried and scintillation buffer Optiphase added. The radioactivity retained in the filter is counted using a Microbeta liquid scintillation counter.

IC50 [nM] | Compound
250 | Cc1nn(-c2cccc(NC(=O)[C@@H]3C[C@H]3c3ccccc3)c2)c(C)c1CC(=O)O (relative stereo) [Example 1, {3,5-Dimethyl-1-[3-({[trans-2-phenylcyclopropyl]carbonyl}amino)phenyl]-1H-pyrazol-4-yl}acetic acid]
86 | Cc1nn(Cc2ccccc2S(=O)(=O)c2ccccc2)c(C)c1CC(=O)O [Example 13, {3,5-Dimethyl-1-[2-(phenylsulfonyl)benzyl]-1H-pyrazol-4-yl}acetic acid]
105 | Cc1c(CC(=O)O)c(-c2ccccc2)nn1Cc1ccccc1Cc1ccccc1 [Example 24, [1-(2-Benzylbenzyl)-5-methyl-3-phenyl-1H-pyrazol-4-yl]acetic acid]
94 | Cc1c(CC(=O)O)c(-c2ccc(Cl)cc2)nn1Cc1ccccc1S(=O)(=O)N1CCOCC1 [Example 25, {3-(4-Chlorophenyl)-5-methyl-1-[2-(morpholin-4-ylsulfonyl)benzyl]-1H-pyrazol-4-yl}acetic acid]
160 | Cc1c(CC(=O)O)c(=O)[nH]n1Cc1ccccc1S(=O)(=O)c1ccccc1 [Example 29, {3-Hydroxy-5-methyl-1-[2-(phenylsulfonyl)benzyl]-1H-pyrazol-4-yl}acetic acid]
66 | Cc1c(CC(=O)O)c(-c2ccccc2)nn1Cc1ccccc1S(=O)(=O)N1CCCCC1 [Example 30, {5-Methyl-3-phenyl-1-[2-(piperidin-1-ylsulfonyl)benzyl]-1H-pyrazol-4-yl}acetic acid]

Second part, the compound before the results:

Compound | IC50 [nM]
Cc1ccc(NC(=O)Nc2cccc(Cn3nc(C)c(CC(=O)O)c3C)c2)cc1 [Example 4, {3,5-Dimethyl-1-[3-({[(4-methylphenyl)amino]carbonyl}amino)benzyl]-1H-pyrazol-4-yl}acetic acid] | 370
Cc1c(CC(=O)O)c(-c2ccccc2)nn1Cc1ccccc1S(=O)(=O)c1ccccc1 [Example 15, {5-Methyl-3-phenyl-1-[2-(phenylsulfonyl)benzyl]-1H-pyrazol-4-yl}acetic acid] | 6.8
Cc1c(CC(=O)O)c(-c2ccccc2)nn1Cc1ccccc1S(=O)(=O)N1CCOCC1 [Example 23, {5-Methyl-1-[2-(morpholin-4-ylsulfonyl)benzyl]-3-phenyl-1H-pyrazol-4-yl}acetic acid] | 74
Cc1c(CC(=O)O)c(-c2ccc(Cl)cc2)nn1Cc1ccccc1S(=O)(=O)c1ccccc1 [Example 26, {3-(4-Chlorophenyl)-5-methyl-1-[2-(phenylsulfonyl)benzyl]-1H-pyrazol-4-yl}acetic acid] | 24
